From ChEMBL document CHEMBL5291721, “A preclinical secondary pharmacology resource illuminates target-adverse drug reaction associations of marketed drugs” (Nat Commun, 2023) come the findings set out here.

Some results are limits rather than exact numbers.

Some targets named below: D(1A) dopamine receptor (Homo sapiens, UniProt P21728); Histamine H3 receptor (Homo sapiens, UniProt Q9Y5N1); Mu-type opioid receptor (Homo sapiens, UniProt P35372).
For assay [1], the target named is T1, Alpha-1A adrenergic receptor (Homo sapiens, UniProt P35348).
T1 sequence (P35348 whole entry): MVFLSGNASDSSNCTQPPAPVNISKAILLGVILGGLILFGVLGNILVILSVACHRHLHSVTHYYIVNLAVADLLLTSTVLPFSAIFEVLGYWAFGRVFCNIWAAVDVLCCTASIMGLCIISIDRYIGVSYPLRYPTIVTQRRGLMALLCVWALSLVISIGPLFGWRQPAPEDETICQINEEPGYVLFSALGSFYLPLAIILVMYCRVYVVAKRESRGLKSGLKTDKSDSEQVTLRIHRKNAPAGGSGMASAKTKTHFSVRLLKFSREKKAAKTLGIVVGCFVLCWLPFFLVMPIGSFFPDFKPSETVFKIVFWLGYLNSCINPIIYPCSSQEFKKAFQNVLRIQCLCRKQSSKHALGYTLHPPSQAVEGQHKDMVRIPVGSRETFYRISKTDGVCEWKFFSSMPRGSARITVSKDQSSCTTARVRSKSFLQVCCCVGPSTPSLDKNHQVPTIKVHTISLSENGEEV
In kind it is functional, cell-based.

Assay [2] addresses T1, Alpha-1A adrenergic receptor. In kind it is functional, cell-based. This is another data set of the same source.
Assay [3] addresses T2, Muscarinic acetylcholine receptor M2 (Homo sapiens, UniProt P08172).
T2 sequence (P08172 whole entry): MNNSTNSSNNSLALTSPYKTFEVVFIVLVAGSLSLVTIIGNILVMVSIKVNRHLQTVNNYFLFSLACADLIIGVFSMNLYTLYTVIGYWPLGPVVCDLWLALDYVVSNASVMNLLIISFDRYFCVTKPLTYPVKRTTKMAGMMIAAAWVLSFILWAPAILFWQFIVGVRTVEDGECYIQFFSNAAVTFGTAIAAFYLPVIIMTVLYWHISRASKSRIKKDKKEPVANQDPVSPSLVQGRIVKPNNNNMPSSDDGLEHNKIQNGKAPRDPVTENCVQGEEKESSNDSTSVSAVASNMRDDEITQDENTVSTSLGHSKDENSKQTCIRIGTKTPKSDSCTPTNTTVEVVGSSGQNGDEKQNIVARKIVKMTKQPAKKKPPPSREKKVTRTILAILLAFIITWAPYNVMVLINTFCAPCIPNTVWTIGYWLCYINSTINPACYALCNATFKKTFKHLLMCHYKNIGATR

The target of assay [4] is 3',5'-cyclic-AMP phosphodiesterase 4A (Homo sapiens, UniProt P27815). The assay is classed as functional.
For a further assay, the target named is T3, Progesterone receptor (Homo sapiens, UniProt P06401).
T3 sequence (P06401 whole entry): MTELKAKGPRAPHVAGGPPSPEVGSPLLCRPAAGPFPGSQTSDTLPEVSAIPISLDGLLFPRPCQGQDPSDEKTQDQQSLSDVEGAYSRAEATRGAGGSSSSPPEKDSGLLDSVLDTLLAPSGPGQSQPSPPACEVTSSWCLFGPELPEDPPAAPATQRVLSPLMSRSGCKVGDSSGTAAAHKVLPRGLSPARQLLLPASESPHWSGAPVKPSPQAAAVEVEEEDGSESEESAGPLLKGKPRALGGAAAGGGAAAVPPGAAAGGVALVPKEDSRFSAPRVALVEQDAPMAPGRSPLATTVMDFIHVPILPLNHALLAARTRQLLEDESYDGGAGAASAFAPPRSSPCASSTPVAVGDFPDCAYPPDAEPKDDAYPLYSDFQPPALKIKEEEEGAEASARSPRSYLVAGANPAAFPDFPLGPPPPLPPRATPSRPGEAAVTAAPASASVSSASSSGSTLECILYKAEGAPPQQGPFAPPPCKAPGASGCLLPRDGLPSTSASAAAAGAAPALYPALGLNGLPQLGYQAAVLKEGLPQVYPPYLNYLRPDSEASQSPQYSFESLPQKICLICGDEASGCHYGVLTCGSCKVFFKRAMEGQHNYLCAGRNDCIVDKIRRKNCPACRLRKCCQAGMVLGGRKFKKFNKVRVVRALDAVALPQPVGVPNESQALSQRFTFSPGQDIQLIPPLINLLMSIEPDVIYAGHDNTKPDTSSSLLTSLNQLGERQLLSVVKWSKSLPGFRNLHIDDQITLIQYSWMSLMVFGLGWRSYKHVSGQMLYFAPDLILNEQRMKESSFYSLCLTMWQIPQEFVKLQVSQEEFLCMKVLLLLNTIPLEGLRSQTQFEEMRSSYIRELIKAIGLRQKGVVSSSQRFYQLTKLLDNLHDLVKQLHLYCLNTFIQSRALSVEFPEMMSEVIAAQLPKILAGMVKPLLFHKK

In assay [5] the target is Prostaglandin G/H synthase 1 (Homo sapiens, UniProt P23219). In kind it is functional.
For another assay, the target named is T4, Thromboxane A2 receptor (Homo sapiens, UniProt P21731).
T4 sequence (P21731 whole entry): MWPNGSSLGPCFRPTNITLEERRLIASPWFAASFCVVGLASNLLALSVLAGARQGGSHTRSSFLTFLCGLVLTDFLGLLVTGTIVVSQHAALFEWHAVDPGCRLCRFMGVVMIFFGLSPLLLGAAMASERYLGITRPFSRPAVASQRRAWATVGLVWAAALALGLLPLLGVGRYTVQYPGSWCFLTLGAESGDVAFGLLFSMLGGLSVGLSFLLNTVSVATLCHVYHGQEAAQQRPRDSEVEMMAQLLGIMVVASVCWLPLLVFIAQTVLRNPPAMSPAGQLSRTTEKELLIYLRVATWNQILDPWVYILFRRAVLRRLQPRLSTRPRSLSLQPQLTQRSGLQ
In kind it is functional, cell-based.
Further: assay procedure not described here.

Sequence of Mu-type opioid receptor (P35372 whole entry): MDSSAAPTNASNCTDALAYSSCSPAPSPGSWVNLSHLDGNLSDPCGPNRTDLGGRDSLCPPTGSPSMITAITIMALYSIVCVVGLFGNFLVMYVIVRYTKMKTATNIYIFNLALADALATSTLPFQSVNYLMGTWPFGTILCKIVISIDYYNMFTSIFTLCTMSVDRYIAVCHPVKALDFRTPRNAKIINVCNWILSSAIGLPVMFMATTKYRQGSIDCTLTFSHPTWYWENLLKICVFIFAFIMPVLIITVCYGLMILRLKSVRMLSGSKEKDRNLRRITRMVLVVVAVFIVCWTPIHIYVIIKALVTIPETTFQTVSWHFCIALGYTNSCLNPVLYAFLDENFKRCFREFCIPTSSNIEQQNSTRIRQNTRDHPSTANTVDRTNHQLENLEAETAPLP
Sequence of Histamine H3 receptor (Q9Y5N1 whole entry): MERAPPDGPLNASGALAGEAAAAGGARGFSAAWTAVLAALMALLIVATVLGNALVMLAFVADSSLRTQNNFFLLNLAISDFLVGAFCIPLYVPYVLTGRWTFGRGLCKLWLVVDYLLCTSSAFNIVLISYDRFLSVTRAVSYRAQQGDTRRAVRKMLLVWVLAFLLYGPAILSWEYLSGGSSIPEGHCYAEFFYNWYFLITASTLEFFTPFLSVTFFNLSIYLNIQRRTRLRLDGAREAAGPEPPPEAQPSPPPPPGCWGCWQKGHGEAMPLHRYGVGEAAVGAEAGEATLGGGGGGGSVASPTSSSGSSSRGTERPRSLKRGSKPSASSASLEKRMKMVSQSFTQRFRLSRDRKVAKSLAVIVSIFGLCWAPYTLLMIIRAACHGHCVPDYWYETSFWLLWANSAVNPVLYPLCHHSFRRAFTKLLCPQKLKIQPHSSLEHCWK
Sequence of 3',5'-cyclic-AMP phosphodiesterase 4A (P27815 whole entry): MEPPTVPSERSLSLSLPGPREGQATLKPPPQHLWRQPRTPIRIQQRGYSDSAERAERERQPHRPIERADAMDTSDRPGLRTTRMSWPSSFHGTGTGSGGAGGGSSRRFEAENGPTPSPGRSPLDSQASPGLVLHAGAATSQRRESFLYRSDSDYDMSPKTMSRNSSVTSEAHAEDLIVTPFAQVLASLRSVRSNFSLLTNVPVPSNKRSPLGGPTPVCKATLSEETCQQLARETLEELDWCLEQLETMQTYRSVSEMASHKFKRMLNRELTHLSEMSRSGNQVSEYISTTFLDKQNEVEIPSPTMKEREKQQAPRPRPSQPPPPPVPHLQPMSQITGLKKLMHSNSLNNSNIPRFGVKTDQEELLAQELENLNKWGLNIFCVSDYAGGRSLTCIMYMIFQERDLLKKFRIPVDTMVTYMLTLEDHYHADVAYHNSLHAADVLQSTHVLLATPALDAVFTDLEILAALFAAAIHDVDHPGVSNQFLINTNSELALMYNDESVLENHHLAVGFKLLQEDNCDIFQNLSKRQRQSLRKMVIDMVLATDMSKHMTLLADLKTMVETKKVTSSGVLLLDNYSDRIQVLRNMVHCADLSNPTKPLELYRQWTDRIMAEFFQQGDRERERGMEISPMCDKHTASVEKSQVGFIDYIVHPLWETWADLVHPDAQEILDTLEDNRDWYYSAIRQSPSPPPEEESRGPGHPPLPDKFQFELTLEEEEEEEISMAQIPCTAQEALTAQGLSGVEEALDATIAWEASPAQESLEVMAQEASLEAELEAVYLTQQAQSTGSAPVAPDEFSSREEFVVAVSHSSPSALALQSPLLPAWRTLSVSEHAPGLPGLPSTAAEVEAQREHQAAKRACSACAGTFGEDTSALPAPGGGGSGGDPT
Sequence of Prostaglandin G/H synthase 1 (P23219 whole entry): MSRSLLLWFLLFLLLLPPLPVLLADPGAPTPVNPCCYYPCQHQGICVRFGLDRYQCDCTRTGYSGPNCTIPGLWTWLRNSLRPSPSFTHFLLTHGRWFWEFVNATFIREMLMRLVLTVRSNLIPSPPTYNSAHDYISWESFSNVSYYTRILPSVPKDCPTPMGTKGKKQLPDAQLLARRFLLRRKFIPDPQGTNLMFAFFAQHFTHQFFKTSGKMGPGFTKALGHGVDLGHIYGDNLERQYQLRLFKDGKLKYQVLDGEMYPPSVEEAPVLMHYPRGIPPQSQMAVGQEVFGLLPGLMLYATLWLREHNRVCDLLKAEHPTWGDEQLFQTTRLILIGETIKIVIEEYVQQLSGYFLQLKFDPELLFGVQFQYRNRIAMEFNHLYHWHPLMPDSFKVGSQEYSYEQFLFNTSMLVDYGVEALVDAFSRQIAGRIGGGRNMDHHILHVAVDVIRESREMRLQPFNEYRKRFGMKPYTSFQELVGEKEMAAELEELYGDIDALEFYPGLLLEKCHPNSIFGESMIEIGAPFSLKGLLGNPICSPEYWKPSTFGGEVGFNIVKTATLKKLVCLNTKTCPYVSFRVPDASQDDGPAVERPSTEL
Sequence of D(1A) dopamine receptor (P21728 whole entry): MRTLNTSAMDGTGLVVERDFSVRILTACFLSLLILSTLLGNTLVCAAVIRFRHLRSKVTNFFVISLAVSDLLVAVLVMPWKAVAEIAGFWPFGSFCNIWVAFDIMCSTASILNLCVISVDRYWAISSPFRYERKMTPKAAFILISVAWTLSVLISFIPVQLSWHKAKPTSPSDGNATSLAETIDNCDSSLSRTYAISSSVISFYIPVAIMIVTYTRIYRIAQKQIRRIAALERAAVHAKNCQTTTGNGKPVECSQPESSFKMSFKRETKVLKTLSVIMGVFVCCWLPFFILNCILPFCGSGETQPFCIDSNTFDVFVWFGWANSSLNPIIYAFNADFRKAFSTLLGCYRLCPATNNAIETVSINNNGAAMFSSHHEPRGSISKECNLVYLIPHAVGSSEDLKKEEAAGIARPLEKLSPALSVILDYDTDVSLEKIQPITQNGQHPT

For `C[C@@H]1CN(c2c(F)c(N)c3c(=O)c(C(=O)O)cn(C4CC4)c3c2F)C[C@H](C)N1` [SPARFLOXACIN], the AC50 (in [1]; in [2]; in [3]; at D(1A) dopamine receptor; at Histamine H3 receptor; on Mu-type opioid receptor) was greater than 30 µM throughout. Also, the AC50 (in assay [4]; on Progesterone receptor; in [5]; at Thromboxane A2 receptor) was greater than 30 µM each time.
Consider `COc1ncnc(NS(=O)(=O)c2ccc(N)cc2)c1OC` [SULFADOXINE], for which the AC50 (in [1]; in assay [2]; in assay [3]; at D(1A) dopamine receptor; at Histamine H3 receptor; at Mu-type opioid receptor) was greater than 30 µM throughout. Besides, the AC50 (in assay [4]; on Progesterone receptor; in assay [5]; on Thromboxane A2 receptor) was greater than 30 µM throughout.
Turning to `[H]/N=C(/N)NS(=O)(=O)c1ccc(N)cc1` [SULFAGUANIDINE], the AC50 (in [1]; in [2]; in [3]; on D(1A) dopamine receptor; on Histamine H3 receptor; on Mu-type opioid receptor) was greater than 30 µM in each case. The half-maximal activity concentration (AC50) (in assay [4]; on Progesterone receptor; in assay [5]; on Thromboxane A2 receptor) was greater than 30 µM throughout.
For `CC1(C)CCC(C)(C)c2cc(NC(=O)c3ccc(C(=O)O)cc3)ccc21` [TAMIBAROTENE], the concentration at half-maximal activity (AC50) was greater than 30 µM in assay [1]; greater than 10 µM in assay [2]; greater than 30 µM in assay [3]; greater than 30 µM at D(1A) dopamine receptor; greater than 30 µM on Histamine H3 receptor; greater than 30 µM at Mu-type opioid receptor. The half-maximal activity concentration (AC50) in [4] was greater than 30 µM; at Progesterone receptor it was 29.2 µM; in assay [5] it was greater than 30 µM; on Thromboxane A2 receptor, 28.7 µM.
`CC(C)N1CCN(c2ccc(OCC3COC(Cn4cncn4)(c4ccc(Cl)cc4Cl)O3)cc2)CC1` (stereo not given) [TERCONAZOLE]: the AC50 in assay [1] was greater than 30 µM; in [2] it was 16 µM; in assay [3], 10.9 µM; on D(1A) dopamine receptor, 25.2 µM; on Histamine H3 receptor it was 0.096 µM; at Mu-type opioid receptor it was greater than 30 µM. The AC50 was greater than 30 µM in [4], 18.7 µM on Progesterone receptor, greater than 30 µM in [5] and 20 µM on Thromboxane A2 receptor.
Consider `CCOC1O[C@H]([C@@H](COCc2ccccc2)OCc2ccccc2)[C@H](OCc2ccccc2)[C@H]1O` (stereo not given in full) [TRIBENOSIDE], for which the AC50 is greater than 30 µM in assay [1]; 15.2 µM in assay [2]; greater than 30 µM in [3]; greater than 30 µM on D(1A) dopamine receptor; greater than 30 µM at Histamine H3 receptor; greater than 30 µM at Mu-type opioid receptor. For the same compound, the AC50 (in assay [4]; on Progesterone receptor; in assay [5]; at Thromboxane A2 receptor) was greater than 30 µM throughout.
On to `NS(=O)(=O)c1cc2c(cc1Cl)NC(C(Cl)Cl)NS2(=O)=O` (stereo not given) [TRICHLORMETHIAZIDE], for which the concentration at half-maximal activity (AC50) (in assay [1]; in [2]; in assay [3]; on D(1A) dopamine receptor; on Histamine H3 receptor; on Mu-type opioid receptor) was greater than 30 µM throughout. Besides, the AC50 (in assay [4]; at Progesterone receptor; in assay [5]; on Thromboxane A2 receptor) was greater than 30 µM in each case.
For the compound `N[C@@H](Cc1ccc(O)cc1)C(=O)O` [TYROSINE], the AC50 (in assay [1]; in assay [2]; in assay [3]; at D(1A) dopamine receptor; at Histamine H3 receptor; on Mu-type opioid receptor) was greater than 30 µM each time. Moreover, the half-maximal activity concentration (AC50) (in [4]; on Progesterone receptor; in [5]; at Thromboxane A2 receptor) was greater than 30 µM throughout.
Regarding `CC(=O)O[C@]1(C(C)=O)CC[C@H]2[C@@H]3CCC4=CC(=O)CCC4=C3[C@@H](c3ccc(N(C)C)cc3)C[C@@]21C` [ULIPRISTAL ACETATE], the half-maximal activity concentration (AC50) is greater than 30 µM in [1]; greater than 30 µM in assay [2]; greater than 30 µM in [3]; greater than 30 µM on D(1A) dopamine receptor; greater than 30 µM on Histamine H3 receptor; 22.5 µM at Mu-type opioid receptor. Also, the AC50 in assay [4] was greater than 30 µM; on Progesterone receptor, 0.003 µM; in assay [5] it was greater than 30 µM; at Thromboxane A2 receptor, greater than 30 µM.

The term AC50 denotes the concentration giving half of the maximal activity seen. A high value points to weaker potency.
